The source of these data is PMC11990524, “Design and Synthesis of Novel 6-(Substituted phenyl)-[1,3]dioxolo[4′,5′:4,5]benzo[1,2-d]thiazole Compounds as Tyrosinase Inhibitors: In Vitro and In Vivo Insights” (Molecules, 2025).

Usually Ki stands for a dissociation constant, usually derived from enzyme kinetics or from competition with a known ligand.

One data set deals with mushroom tyrosinase (Agaricus bisporus, UniProt C7FF04). In words: Kinetic analysis of mushroom tyrosinase (Lineweaver–Burk and Dixon plots). It is filed as biochemical. On the set-up: purchased Sigma-Aldrich. Particulars: substrate L-dopa. As to the method:
Therefore, the mechanism of inhibition was investigated using mushroom tyrosinase. At various concentrations of L-dopa, the initial dopachrome production rate was investigated at four different concentrations of 5 (0, 20, 40, and 80 μM) and 9 (0, 0.5, 1.0, and 2.0 μM).
The Lineweaver–Burk plot for each compound was re-plotted by plotting the reciprocal of the initial dopachrome production rate vs. the […] to create a Dixon plot for each compound (Figure 3C,D for compounds 5 and 9, respectively). […] The absolute value of the x-coordinate of the merged point represents the inhibition constant (Ki), which indicates the potency of the inhibitor.
Kinetic analysis of mushroom tyrosinase was performed by recording the initial dopachrome formation rate in the presence of compounds 5 and 9. […] The optical density of dopachrome production in each well was recorded at 475 nm at 5 min intervals for 30 min. Compounds were tested at 80, 40, 20, and 0 μM for 5 and at 2, 1.0, 0.5, and 0 μM for 9, respectively. Potting the inverse of the substrate concentration vs. the reciprocal of the initial dopachrome production rate generated Lineweaver–Burk plots.

The nature of data set [1]: ABTS radical scavenging assay. The settings on record: 100 μM. As to the method: The ABTS^+ radical solution was obtained by mixing ABTS and potassium persulfate, an oxidizing reagent, and test samples (1–13 and Trolox [positive control]; final concentration: 100 μM) were added to determine their ABTS^+ radical scavenging ability by measuring the optical density at 732 nm.
To prepare ABTS^•+ stock solution, equal amounts of ABTS (14 mM aqueous solution) and K2S2O8 (4.9 mM aqueous solution) were mixed and stored in the dark at 18 °C for 15 h. The prepared ABTS^•+ solution was diluted in ethanol to adjust the absorbance to 0.7 ± 0.01 at 732 nm. The test samples (Trolox [positive control] and compounds 1–13) were dissolved in a cosolvent of ethanol and DMSO (10:1 [v/v]). The adjusted ABTS^•+ solution (90 μL) and test sample (10 μL) were added to each well of a 96-well plate, and the plate was stored in a dark place at 18 °C for 2 min. The optical density was measured at 732 nm every min for 10 min. The test sample solutions were tested at a final concentration of 100 μM. The percentage of radical scavenging activity was calculated as follows: % Radical scavenging activity = 100 × [(Absc − Abst)/Absc], where Abst and Absc are optical densities of the test sample and control, respectively.

The target of data set [2] is T1, B16F10 cellular tyrosinase (Mus musculus, UniProt P11344).
T1 construct: endogenous in cells; host or cells: B16F10 murine cells, stimulated with α-MSH and IBMX
T1 sequence (P11344 19-533): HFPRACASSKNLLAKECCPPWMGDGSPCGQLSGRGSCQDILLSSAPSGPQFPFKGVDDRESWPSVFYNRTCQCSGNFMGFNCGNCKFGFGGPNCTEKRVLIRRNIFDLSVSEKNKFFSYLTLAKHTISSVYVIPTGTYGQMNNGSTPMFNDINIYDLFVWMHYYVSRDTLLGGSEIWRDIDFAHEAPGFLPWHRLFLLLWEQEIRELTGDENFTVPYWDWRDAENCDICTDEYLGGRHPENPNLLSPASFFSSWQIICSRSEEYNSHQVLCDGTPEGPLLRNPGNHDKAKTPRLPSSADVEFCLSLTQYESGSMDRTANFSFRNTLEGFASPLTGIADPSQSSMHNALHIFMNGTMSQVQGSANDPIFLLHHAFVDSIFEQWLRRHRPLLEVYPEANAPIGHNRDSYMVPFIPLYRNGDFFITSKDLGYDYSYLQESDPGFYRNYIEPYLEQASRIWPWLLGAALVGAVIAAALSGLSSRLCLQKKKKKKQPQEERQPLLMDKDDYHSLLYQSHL
In words: Cellular tyrosinase activity assay using B16F10 cells. It is filed as cell-based, murine. The settings on record: 1, 2, and 5 μM, IBMX 200 μM plus α-MSH 1 μM, 72 h. As to the method:
After 72 h of incubation, the B16F10 cellular tyrosinase inhibitory activity was evaluated by measuring the optical density at 475 nm.
To evaluate the effect of compounds 5 and 9 on cellular tyrosinase activity, B16F10 cells (5000 cells/well) were inoculated in a 6-well plate and cultured for 24 h under the same conditions as the cell culture. […] The plate was incubated in a 5% CO2 incubator maintained at 37 °C for 1 h. Each well was treated with stimulators (1 μM α-MSH [Alomone Labs^TM, Jerusalem, Israel] and 200 μM IBMX [Thermo Fisher, Rockford, IL, USA]) and incubated in a CO2 incubator for 72 h. The cells were rinsed twice with PBS (pH 7.4) and treated with 100 μL lysis buffer solution consisting of Triton X-100 (1%; 5 μL), phosphate buffer (50 mM; pH 6.5; 90 μL), and phenylmethanesulfonyl fluoride (2 mM; 5 μL). The lysates were placed for 30 min at −80 °C. After centrifuging at 10,000 g and 4 °C for 10 min, an aliquot (80 μL) of the supernatants was transferred to each well of a 96-well plate, and 20 μL of L-dopa solution (10 mM) was added to each well. The optical density at 475 nm was recorded every min for 10 min to determine cellular tyrosinase activity.

Another data set has as its system HaCaT cells. Nature of the data set: Cytotoxicity assay on HaCaT cells (EZ-Cytox). It is filed as cell-based, human. Particulars: 1, 2, 5, 10, and 20 μM, 24 h. As to the method:
In addition to melanocytes, keratinocytes are the primary cells present in the epidermis. […] Each compound was treated at concentrations of 0, 1, 2, 5, 10, and 20 μM for 24 h, and cell viability was measured using the EZ-Cytox solution.
The effect of compounds 5 and 9 on cell viability of HaCaT and B16F10 cells was assessed using an EZ-Cytox solution (EZ-1000®, DoGenBio, Seoul, Republic of Korea). HaCaT (5 × 10^3 cells/well) and B16F10 (1 × 10^3 cells/well) cells were seeded in a 96-well plate, respectively, and cultured for 24 h under the same conditions as the cell culture. Each well was treated with 5 and 9 at 0, 1, 2, and 5 μM for B16F10 cells and 0, 1, 2, 5, 10, and 20 μM for HaCaT cells. The plates were incubated for 72 h for B16F10 cells and 24 h for HaCaT cells under a CO2 incubator. Each well was treated with the EZ-Cytox solution (10 μL), and the plate was left for 2 h under a CO2 incubator. Well optical density was measured at 450 nm to determine cytotoxicity.

Sequence of mushroom tyrosinase (C7FF04 1-392): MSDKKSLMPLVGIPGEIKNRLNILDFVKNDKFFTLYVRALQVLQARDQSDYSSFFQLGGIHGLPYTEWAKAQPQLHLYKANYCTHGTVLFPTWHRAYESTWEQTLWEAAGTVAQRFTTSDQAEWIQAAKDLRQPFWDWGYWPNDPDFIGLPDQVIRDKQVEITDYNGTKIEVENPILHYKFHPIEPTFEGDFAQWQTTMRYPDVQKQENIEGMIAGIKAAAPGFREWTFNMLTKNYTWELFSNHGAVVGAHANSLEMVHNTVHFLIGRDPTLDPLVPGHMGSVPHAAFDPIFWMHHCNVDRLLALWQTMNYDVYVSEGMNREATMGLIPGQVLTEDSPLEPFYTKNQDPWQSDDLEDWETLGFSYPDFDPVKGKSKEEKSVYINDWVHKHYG

Turning to `Oc1ccc(-c2nc3cc4c(cc3s2)OCO4)c(O)c1` [Compound 9, 4-([1,3]Dioxolo[4′,5′:4,5]benzo[1,2-d]thiazol-6-yl)benzene-1,3-diol], on mushroom tyrosinase (Dixon plot, read-out: inhibition constant (Ki)), the Ki worked out at 0.38 µM. Moreover, the mechanism of inhibition result on mushroom tyrosinase (Lineweaver–Burk plot) is listed as “competitive inhibitors”. The “ABTS^+ radical scavenging activity (inhibition rate)” value in data set [1] is recorded as 96%. The cellular tyrosinase activity entry in data set [2] is “significantly decreased the cellular tyrosinase activity”. Further, in the data set with HaCaT cells, the “cytotoxicity (cell viability)” value is given as “None of the compounds revealed significant cytotoxicity up to 20 μM”.
